Experimental data taken from US20250269022A1, “ASSESSING AND TREATING CANCER” (Mayo Foundation for Medical Education and Research, priority 2021, published 2025).
“Also recorded” adds a separate entry of the source. Like-named read-outs stand apart in the source and are kept apart here. One block for each compound: values may come before it.

What was measured:
JeKo-1 cells [1] = assay: CART19 killing of luciferase+ JeKo-1 cells in combination with small molecules; type: cell-based
Protocol: CART19 cells were cultured in combination with different molecules at the indicated ratios/concentration, and in combination with the luciferase+ JeKo-1 cells at the indicated E:T ratios. Killing was determined after 24 hours using bioluminescence imaging.

CART cells [2] = assay: Proliferation assay of CART cells co-cultured with JeKo-1 cells, with navitoclax or venetoclax; type: cell-based
Excerpt: Longitudinal navitoclax treatment of CART cells. […] Longitudinal treatments included two parts.
For proliferation assays, effector cells (CART cells), and irradiated target cells (CD19+ JeKo 1 cells) were co-cultured at different ratios and with different concentrations of the compounds. Cells were co-cultured for 3-5 days, and then cells were harvested and surface staining with antihCD3 (eBioscience, San Diego, CA, USA) and LIVE/DEAD™ Fixable Aqua Dead Cell Stain Kit (Invitrogen, Carlsbad, CA, USA) was performed.

CART cells [3] = assay: EdU assay of cycling CART cells; type: cell-based; conditions: navitoclax treated
Protocol: Longitudinal navitoclax treatment of CART cells. […] […] Longitudinal treatments included two parts. […] Cells were co-cultured for 3-5 days, and then cells were harvested and surface staining with […]3 (eBioscience, San Diego, CA, USA) and LIVE/DEADTM Fixable Aqua Dead Cell Stain Kit (Invitrogen, Carlsbad, CA, USA) was performed.

JeKo-1 cells [4] = assay: Cytotoxicity (killing) assay of CART cells against luciferase+ JeKo-1 cells, with senolytics
Protocol: D8 CART cells were treated with navitoclax (0 μM, 0.5 μM, 1 μM, 2 μM, or 4 μM) for 24 hours and then divided into two groups. In the first group, navitoclax was washed away for proliferation and cytotoxicity assays. In the second group, navitoclax treatment was maintained during proliferation and cytotoxicity assays.
Longitudinal navitoclax treatment of CART cells. D15 and D22 CART cells were generated to mimic possible dysfunctions (e.g., exhaustion, senescence, etc.) that CART cells can develop. Serial activation of CART cells can induce T cell senescence during CART cell generation. This experiment was designed to selectively remove senescing CART cells during CART cell proliferation. During this experiment CART cells were pretreated with navitoclax, the proliferation, EDU, and cytotoxicity assays were done in the absence of navitoclax. Longitudinal treatments included two parts. Part I was a typical CART cell production protocol except for addition of navitoclax at D7 for 24 hours. Briefly, CART cells were activated on day 1, transduced on day 2, and debeaded on day 6. On day 7, CART cells were treated with navitoclax (0 μM, 0.125 μM, 0.25 μM, 0.5 μM, 0.75 μM, 1 μM, or 2 μM). On day 8, the navitoclax was washed away, and the CART cells were prepared for cytotoxicity assays and proliferation assays. For part II, JeKo-1 UDT was added to the CART cells on days 8 and 10, the media was replaced on day 12, and navitoclax was added on day 13. On day 14, the navitoclax was washed away, and the CART cells were prepared for cytotoxicity assays and proliferation assays or JeKo-1 IR was added and the CART cells were prepared for an EdU assay. The CART cells were provided several resting times after being activated by JeKo-1 to provide plenty of resting time to differentiate reversible exhaustion and irreversible T cell senescence. This assay focuses on D8 (freshly generated CART cells), D15 (D8 cells activated with JeKo-1 for a week as indicated as part II in the figure), and D22 CART cells (additional activation summarized in part II on D15 CART cells).
For killing assays, the CD19+ Luciferase+ mantle cell lymphoma cell like JeKo-1 cells were incubated with effector T cells for 24, 48, or 72 hours. Killing was calculated by bioluminescence imaging on a Xenogen IVIS-200 Spectrum camera (PerkinElmer, Hopkinton, MA, USA) as a measure of residual live cells. Samples were treated with 1 μL D-luciferin (30 μg/mL) per 100 μL sample volume (Gold Biotechnology, St. Louis, MO, USA), for 10 minutes prior to imaging.

JeKo1 cell line = assay: In vivo JeKo1 xenograft with navitoclax-treated CART cells; design: species or system NSG mice
Excerpt: NSG mice were engrafted with the luciferase positive, CD19+ JeKo1 cell line I.V. One week later, mice underwent bioluminescence imaging (BLI) to determine the level of the disease and then randomized to treatment with CART cells. Mice then underwent weekly BLI to measure disease burden and were followed for survival.

PD-L1 = target: T1, PD-L1 (Homo sapiens, UniProt Q9NZQ7); assay: CART19 antigen-specific proliferation with PD-L1 blockade in presence of PD-L1high CLL-derived EVs; type: cell-based; conditions: PD-L1high CLL-derived EVs 100:1, 6 hours, JeKo-1 at E:T 5:1, antibody 20 μg/mL
T1 construct: These PPP preparations from the peripheral blood of untreated CLL patients are the source of the samples called CLL-derived EVs; from tissue; host or cells: extracellular vesicles in platelet-poor plasma of untreated CLL patients, co-cultured with CART19 cells and then JeKo-1 cells
Protocol: CART19 and JeKo-1 or JeKo-1 cells irradiated at 120 Gy were cocultured at a 1:1 ratio with or without CLL-derived EVs. T cells for functional assays were cultured in T cell medium containing X-VIVO 15 (Lonza, Walkersville, MD, USA), 10% human serum albumin (Innovative Research, Novi, MI, USA), and 1% penicillin-streptomycin-glutamine (Gibco, Gaithersburg, MD, USA). EVs were cocultured with CART19 cells at 100:1, 10:1, 5:1, and 1:1 EV/CART cell ratios using three biological replicates of CLL-derived EVs at 37° C., 5% CO2, and then co-cultured with primary CLL cells or JeKo-1 cells as indicated in the specific experiment. Cell supernatant was collected at 24 hours, and cells were analyzed by flow cytometry. To assess killing and proliferation, UTD T cells, CART19 cells, and CART19 cells co-cultured with CLL-derived EVs at a 100:1 EV/CART cell ratio were incubated at 37° C., 5% CO2 for 6 hours before adding JeKo-1 target cells. […] Cells were analyzed by flow cytometry after 48 hours of incubation.

T1 sequence (Q9NZQ7 19-290): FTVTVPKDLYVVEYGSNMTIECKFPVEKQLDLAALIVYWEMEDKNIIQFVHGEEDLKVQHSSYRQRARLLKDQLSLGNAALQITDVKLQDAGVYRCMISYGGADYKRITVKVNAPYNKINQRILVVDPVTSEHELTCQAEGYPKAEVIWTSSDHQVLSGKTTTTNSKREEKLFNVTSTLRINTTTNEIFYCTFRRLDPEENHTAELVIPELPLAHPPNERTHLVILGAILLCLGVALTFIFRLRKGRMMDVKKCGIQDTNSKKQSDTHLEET

Compound: O=S(=O)(c1cccc2cnccc12)N1CCCNCC1 [fasudil]
- CART19 antigen specific killing (JeKo-1 cells [1]; combination with CART19 cells, 24 hours, bioluminescence): improved CART19 antigen specific killing

Compound: CC1(C)CCC(c2ccc(Cl)cc2)=C(CN2CCN(c3ccc(C(=O)NS(=O)(=O)c4ccc(N[C@H](CCN5CCOCC5)CSc5ccccc5)c(S(=O)(=O)C(F)(F)F)c4)cc3)CC2)C1 [navitoclax]
- CART cell proliferation against JeKo-1 in combination with senolytic (CART cells [2]; CART cells co-cultured with JeKo-1 in presence of drug): decreased CART cell proliferation
- CART cell proliferation (CART cells [2]; D8 CART cells continuously treated with navitoclax, co-culture with JeKo-1, vs untreated CART cells): decreased proliferation
- D22 CART cell proliferation (CART cells [2]; longitudinal navitoclax treatment vs navitoclax untreated CART cells, in vitro): increase in D22 CART proliferation
- CART cell proliferation over time (CART cells [2]; longitudinal navitoclax treatment, D8, D15, D22): decreased proliferation of CART cells through time; also recorded: decreases over time
- EdU positivity of CART cells (CART cells [3]; D8 and D22 CART cells): similar
- EdU positivity of CART cells (CART cells [3]; D15 CART cells): decreased
- Cytotoxicity of drug alone against JeKo-1 (JeKo-1 cells [4]; 0:1 E:T ratio (no CART)): cytotoxic against JeKo-1
- CART cell cytotoxicity against JeKo-1 in combination with senolytic (JeKo-1 cells [4]; D8 CART cells co-cultured with JeKo-1 and drug, 48 hours): increased CART cell cytotoxicity
- CART cell cytotoxicity against JeKo-1 (JeKo-1 cells [4]; navitoclax maintained in assay, higher navitoclax concentrations): decreased CART cell cytotoxicity
- CART cell cytotoxicity against JeKo-1 (JeKo-1 cells [4]; navitoclax pre-treatment 24 hours, assay without navitoclax): did not result in different cytotoxicity
- Tumor burden of mice (JeKo1 cell line; D22 CART cells treated with or without navitoclax, 22 days after CART cell transplantation): not different
- Antitumor activity of CART cells in vivo (JeKo1 cell line; navitoclax pretreatment of CART cells): did not increase antitumor activity; also recorded: did not improve CART cell activity

Compound: CC(C)(CO)[C@@H](O)C(=O)NCCC(=O)NCCSSCCNC(=O)CCNC(=O)[C@H](O)C(C)(C)CO [panthethine, D-pantethine]
- CART19 antigen specific killing (JeKo-1 cells [1]): improved CART19 antigen specific killing

Compound: CC1(C)CCC(CN2CCN(c3ccc(C(=O)NS(=O)(=O)c4ccc(NCC5CCOCC5)c([N+](=O)[O-])c4)c(Oc4cnc5[nH]ccc5c4)c3)CC2)=C(c2ccc(Cl)cc2)C1 [venetoclax]
- CART cell cytotoxicity against JeKo-1 in combination with senolytic (JeKo-1 cells [4]): increased CART cell cytotoxicity

- Reversal of EV-mediated inhibition of CART19 antigen-specific proliferation (PD-L1): did not improve
- Reversal of EV-mediated inhibition of CART19 antigen-specific proliferation (PD-L1; listed as PD-L1 blocking antibodies): no statistically significant reversal
Compound: atezolizumab [anti-PD-L1 antibody]
